According to ChEMBL document CHEMBL6074683, “Design, synthesis and investigation of biological activity and mechanism of fluoroaryl-substituted derivatives at the FL118 position 7” (Eur J Med Chem, 2025):
The source made the active and inactive calls. The rule behind the calls is not given here.

Tests used:
A549 = test: Cytotoxicity against human A549 cells incubated for 72 hrs by MTT assay; assay type: functional, cell-based; conditions: A549, 72 h
HeLa = test: Cytotoxicity against human HeLa cells incubated for 72 hrs by MTT assay; assay type: functional, cell-based
HCT-116 [1] = test: Cytotoxicity against human HCT-116 cells incubated for 72 hrs by MTT assay; assay type: functional, cell-based; conditions: HCT-116, 72 h
HepG2 = test: Cytotoxicity against human HepG2 cells incubated for 72 hrs by MTT assay; assay type: functional, cell-based; conditions: HepG2, 72 h
HCT-116 [2] = test: Inhibition of colony formation in human HCT-116 cells incubated for 12 hrs by crystal violet staining based assay; assay type: functional, cell-based; conditions: dose 5-25 nM
HCT-116 [3] = test: Induction of ROS generation in human HCT-116 cells incubated for 12 hrs by DCFH-DA staining based assay; assay type: functional, cell-based
HCT-116 [4] = test: Downregulation of Bcl-2 protein level in human HCT-116 cells at 50 to 100 nM incubated for 72 hrs by Western blotting assay; assay type: functional, cell-based; conditions: dose 50-100 nM
[5] = target: T1, DNA topoisomerase 1 (Homo sapiens) (UniProt P11387); test: Inhibition of topoisomerase 1 (unknown origin) using pBR322 DNA as substrate in presence of DDX5 by ethidium bromide staining based agarose gel electrophoresis method
T1 sequence (whole entry): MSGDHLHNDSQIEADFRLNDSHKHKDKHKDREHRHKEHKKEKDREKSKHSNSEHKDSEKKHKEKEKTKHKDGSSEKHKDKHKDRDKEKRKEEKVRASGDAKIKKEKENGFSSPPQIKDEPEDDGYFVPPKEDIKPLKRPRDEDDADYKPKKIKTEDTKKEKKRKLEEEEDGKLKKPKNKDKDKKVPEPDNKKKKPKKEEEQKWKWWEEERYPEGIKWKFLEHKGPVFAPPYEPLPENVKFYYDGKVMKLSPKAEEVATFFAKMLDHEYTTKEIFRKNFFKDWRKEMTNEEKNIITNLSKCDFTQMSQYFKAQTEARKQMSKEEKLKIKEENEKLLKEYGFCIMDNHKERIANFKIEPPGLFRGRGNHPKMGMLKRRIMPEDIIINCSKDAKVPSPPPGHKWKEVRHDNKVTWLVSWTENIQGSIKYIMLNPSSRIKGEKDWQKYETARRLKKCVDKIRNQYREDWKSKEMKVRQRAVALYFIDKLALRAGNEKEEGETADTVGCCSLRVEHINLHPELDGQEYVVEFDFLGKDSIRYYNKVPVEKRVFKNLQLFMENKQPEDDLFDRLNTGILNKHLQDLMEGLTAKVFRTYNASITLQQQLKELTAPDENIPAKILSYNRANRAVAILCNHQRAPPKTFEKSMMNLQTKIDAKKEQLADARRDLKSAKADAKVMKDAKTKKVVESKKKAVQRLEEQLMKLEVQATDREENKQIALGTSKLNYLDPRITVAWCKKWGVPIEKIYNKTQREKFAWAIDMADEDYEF

HCT-116 [6] = test: Induction of apoptosis in human HCT-116 cells assessed as late apoptotic cells at 10 nM incubated for 48 hrs by PI/Annexin V-FITC staining based flow cytometry assay (reference value: 4.02%); assay type: functional
[7] = target: T1, DNA topoisomerase 1 (Homo sapiens); test: Inhibition of topoisomerase 1 (unknown origin) assessed as reduction in nicking of supercoiled DNA at 0.05 to 0.5 uM using pBR322 DNA as substrate by ethidium bromide staining based agarose gel electrophoresis method; conditions: dose 0.05-0.5 µM
PDX27454 [8] = test: Antitumor activity against human PDX27454 cells xenografted in SCID mouse at 15 mg/kg, ip administered weekly for 4 weeks; assay type: functional, organism-based
HCT-116 [9] = test: Induction of ROS generation in human HCT-116 cells incubated for 72 hrs by DCFH-DA staining based assay; assay type: functional, cell-based; conditions: dose 5-100 nM
HCT-116 [10] = test: Induction of apoptosis in human HCT-116 cells assessed as viable cells at 10 nM incubated for 48 hrs by PI/Annexin V-FITC staining based flow cytometry assay (reference value: 93%); assay type: functional; conditions: read-out: Activity
HCT-116 [11] = test: Induction of apoptosis in human HCT-116 cells assessed as early apoptotic cells at 50 nM incubated for 48 hrs by PI/Annexin V-FITC staining based flow cytometry assay (reference value: 0.27%); assay type: functional
[12] = target: T1, DNA topoisomerase 1 (Homo sapiens); test: Inhibition of topoisomerase 1 (unknown origin) using pBR322 DNA as substrate by ethidium bromide staining based agarose gel electrophoresis method
HCT-116 [13] = test: Downregulation of XIAP protein level in human HCT-116 cells at 50 to 100 nM incubated for 72 hrs by Western blotting assay; assay type: functional, cell-based; conditions: dose 50-100 nM
[14] = Toxicity in SCID mouse assessed as change in body weight at 2 to 15 mg/kg, ip administered weekly for 4 weeks; assay type: organism-based; conditions: in vivo, 672 h, dose 2-15 mg/kg
HCT-116 [15] = test: Induction of apoptosis in human HCT-116 cells assessed as late apoptotic cells at 50 nM incubated for 48 hrs by PI/Annexin V-FITC staining based flow cytometry assay (reference value: 4.02%); assay type: functional
PDX27454 [16] = test: Antitumor activity against human PDX27454 cells xenografted in ip dosed SCID mouse administered weekly for 4 weeks and measured after 35 days; assay type: functional, organism-based; conditions: dose 2-15 mg/kg
HCT-116 [17] = test: Induction of apoptosis in human HCT-116 cells assessed as viable cells at 2.5 nM incubated for 48 hrs by PI/Annexin V-FITC staining based flow cytometry assay (reference value: 93%); assay type: functional; conditions: read-out: Activity
HCT-116 [18] = test: Upregulation of gammaH2AX protein level in human HCT-116 cells incubated for 72 hrs by Western blotting assay; assay type: functional, cell-based; conditions: dose 50-100 nM
[19] = target: T1, DNA topoisomerase 1 (Homo sapiens); test: Inhibition of topoisomerase 1 (unknown origin) assessed as reduction in nicking of supercoiled DNA at 5 to 50 uM using pBR322 DNA as substrate by ethidium bromide staining based agarose gel electrophoresis method; conditions: dose 5-50 µM
HCT-116 [20] = test: Induction of apoptosis in human HCT-116 cells assessed as early apoptotic cells at 10 nM incubated for 48 hrs by PI/Annexin V-FITC staining based flow cytometry assay (reference value: 0.27%); assay type: functional
HCT-116 [21] = test: Induction of apoptosis in human HCT-116 cells assessed as early apoptotic cells at 2.5 nM incubated for 48 hrs by PI/Annexin V-FITC staining based flow cytometry assay (reference value: 0.27%); assay type: functional
HCT-116 [22] = test: Induction of apoptosis in human HCT-116 cells assessed as late apoptotic cells at 2.5 nM incubated for 48 hrs by PI/Annexin V-FITC staining based flow cytometry assay (reference value: 4.02%); assay type: functional
HCT-116 [23] = test: Downregulation of survivin protein level in human HCT-116 cells at 50 to 100 nM incubated for 72 hrs by Western blotting assay; assay type: functional, cell-based; conditions: dose 50-100 nM
HCT-116 [24] = test: Downregulation of DDX5 protein expression in human HCT-116 cells at 100 nM incubated upto 72 hrs by Western blotting assay; assay type: functional, cell-based
HCT-116 [25] = test: Induction of apoptosis in human HCT-116 cells assessed as viable cells at 50 nM incubated for 48 hrs by PI/Annexin V-FITC staining based flow cytometry assay (reference value: 93%); assay type: functional; conditions: read-out: Activity
HCT-116 [26] = test: Induction of apoptosis in human HCT-116 cells assessed as necrotic cells at 50 nM incubated for 48 hrs by PI/Annexin V-FITC staining based flow cytometry assay (reference value: 2.58%); assay type: functional
HCT-116 [27] = test: Induction of apoptosis in human HCT-116 cells assessed as necrotic cells at 10 nM incubated for 48 hrs by PI/Annexin V-FITC staining based flow cytometry assay (reference value: 2.58%); assay type: functional
PDX27454 [28] = test: Antitumor activity against human PDX27454 cells xenografted in SCID mouse at 2 to 15 mg/kg, ip administered weekly for 4 weeks; assay type: functional, organism-based; conditions: dose 2-15 mg/kg
HCT-116 [29] = test: Induction of apoptosis in human HCT-116 cells assessed as necrotic cells at 2.5 nM incubated for 48 hrs by PI/Annexin V-FITC staining based flow cytometry assay (reference value: 2.58%); assay type: functional
HCT-116 [30] = test: Upregulation of Bax protein level in human HCT-116 cells incubated for 72 hrs by Western blotting assay; assay type: functional, cell-based; conditions: dose 50-100 nM

SMILES: CC[C@@]1(O)C(=O)OCc2c1cc1n(c2=O)Cc2c-1nc1cc3c(cc1c2-c1ccc(C)c(F)c1)OCO3
- IC50 (A549): 48.2 nM
- IC50 (HeLa): 22.1 nM
- IC50 (HCT-116 [1]): 50.3 nM
- IC50 (HepG2): 36.9 nM

SMILES: CC[C@@]1(O)C(=O)OCc2c1cc1n(c2=O)Cc2c-1nc1cc3c(cc1c2-c1ccc(F)c(F)c1)OCO3
- IC50 (A549): 9 nM
- IC50 (HeLa): 39.7 nM
- IC50 (HCT-116 [1]): 48.8 nM
- IC50 (HepG2): 49.9 nM

SMILES: CC[C@@]1(O)C(=O)OCc2c1cc1n(c2=O)Cc2c-1nc1cc3c(cc1c2-c1ccc(F)c(C)c1)OCO3
- IC50 (A549): 29.4 nM
- IC50 (HeLa): 36.6 nM
- IC50 (HCT-116 [1]): 25.5 nM
- IC50 (HepG2): 36.7 nM

SMILES: CC[C@@]1(O)C(=O)OCc2c1cc1n(c2=O)Cc2c-1nc1cc3c(cc1c2-c1cccc(OC(F)(F)F)c1)OCO3
- IC50 (A549): 26.4 nM
- IC50 (HeLa): 12.8 nM
- IC50 (HCT-116 [1]): 14.6 nM
- IC50 (HepG2): 16.8 nM

SMILES: CCOc1ccc(-c2c3c(nc4cc5c(cc24)OCO5)-c2cc4c(c(=O)n2C3)COC(=O)[C@]4(O)CC)cc1F
- IC50 (A549): 352 nM
- IC50 (HeLa): 42.2 nM
- IC50 (HCT-116 [1]): 399 nM
- IC50 (HepG2): 206 nM

SMILES: CC[C@@]1(O)C(=O)OCc2c1cc1n(c2=O)Cc2c-1nc1cc3c(cc1c2-c1ccc(F)c(OC)c1)OCO3
- inhibition (HCT-116 [2]): Dose-dependent-effect
- Activity (HCT-116 [3]): inactive
- Activity (HCT-116 [4]): Active
- Activity [5]: Active
- Activity (HCT-116 [6]): 16.3%
- Activity [7]: inactive
- Activity (PDX27454 [8]): Active
- Activity (HCT-116 [9]): Dose-dependent-effect
- viability at 0.01 µM (HCT-116 [10]): 79%
- Activity (HCT-116 [11]): 0.78%
- inhibition [12]: Active
- Activity (HCT-116 [13]): Active
- Activity [14]: Non-toxic
- Activity (HCT-116 [15]): 25.9%
- Activity (PDX27454 [16]): Dose-dependent-effect
- viability at 0.0025 µM (HCT-116 [17]): 84.4%
- Activity (HCT-116 [18]): Active
- Activity [19]: Active
- Activity (HCT-116 [20]): 0.5%
- Activity (HCT-116 [21]): 0.64%
- Activity (HCT-116 [22]): 10.9%
- Activity (HCT-116 [23]): Active
- Activity (HCT-116 [24]): inactive
- viability at 0.05 µM (HCT-116 [25]): 67.5%
- Activity (HCT-116 [26]): 5.94%
- Activity (HCT-116 [27]): 4.17%
- Activity (PDX27454 [28]): Active
- Activity (HCT-116 [29]): 4.13%
- Activity (HCT-116 [30]): Active

SMILES: CC[C@@]1(O)C(=O)OCc2c1cc1n(c2=O)Cc2c-1nc1cc3c(cc1c2-c1cc(F)cc(F)c1)OCO3
- IC50 (A549): 49.5 nM
- IC50 (HeLa): 35.6 nM
- Activity [14]: Non-toxic
- IC50 (HCT-116 [1]): 48 nM
- IC50 (HepG2): 41.4 nM
- Activity (PDX27454 [28]): Active

SMILES: CC[C@@]1(O)C(=O)OCc2c1cc1n(c2=O)Cc2c-1nc1cc3c(cc1c2-c1ccc(OC(F)(F)F)cc1)OCO3
- IC50 (A549): 87.3 nM
- IC50 (HeLa): 398 nM
- IC50 (HCT-116 [1]): 196 nM
- IC50 (HepG2): 229 nM
